Experimental data reported in patent EP0497091A1, “Bridged cyclic ketal derivatives” (GLAXO GROUP LIMITED, priority 1991, dated 1992).
Values after ≈ are worked out from the molar mass of the structure shown.

biological target: T1, squalene synthase (Rattus norvegicus, UniProt Q02769); assay: Inhibition of squalene synthase ([14C]squalene production from [2-14C]farnesylpyrophosphate); assay type: biochemical; settings: not given
T1 construct: from tissue; host or cells: rat liver homogenate
T1 sequence (Q02769 1-416): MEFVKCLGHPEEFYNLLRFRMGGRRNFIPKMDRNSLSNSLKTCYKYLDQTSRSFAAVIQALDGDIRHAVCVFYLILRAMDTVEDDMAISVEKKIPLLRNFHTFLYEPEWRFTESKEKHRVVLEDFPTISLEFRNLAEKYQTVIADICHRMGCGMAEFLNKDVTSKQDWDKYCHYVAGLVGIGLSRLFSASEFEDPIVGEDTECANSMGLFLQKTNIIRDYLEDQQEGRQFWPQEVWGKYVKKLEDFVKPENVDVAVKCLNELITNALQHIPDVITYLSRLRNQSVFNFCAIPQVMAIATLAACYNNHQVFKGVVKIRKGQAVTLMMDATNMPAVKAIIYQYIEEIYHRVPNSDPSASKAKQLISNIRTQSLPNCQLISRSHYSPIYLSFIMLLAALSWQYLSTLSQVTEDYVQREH
Source text: A. Biller et al. in J. […] [¹⁴C]squalene is separated from unreacted substrate on thin layer chromatography plates and determined by liquid scintillation counting. […] Acta, Volume 877, 50-60 (1986) and modified to include measurement of cholesterol by high performance liquid chromatography (h.p.l.c.). […] A. […] [¹⁴C] Squalene was separated from unreacted substrate on thin layer chromatography plates and determined by liquid scintillation counting. Inhibition of squalene synthase was quantified by incubating rat liver homogenate with various concentrations of the test compound in the presence of [2-¹⁴C] farnesylpyrophosphate. The concentration of compound giving 50% inhibition of [¹⁴C] squalene production in a 30 minute assay was taken as the IC₅₀ value.

Row | SMILES | IC50 [nM]
1 | C=C(CC[C@]12O[C@H](C(=O)O)[C@@](O)(C(=O)O)[C@](C(=O)O)(O1)[C@H](OC(=O)CCCCCCc1ccccc1)[C@H]2O)[C@@H](OC(C)=O)[C@H](C)Cc1ccccc1 (relative stereo) [Example 39, [1S-[1α(4R*,5S*)3α,4β,5α,6α,7β]] 1-(4-Acetyloxy-5-methyl-3-methylene-6-phenylhexyl)-4,6,7-trihydroxy-2,8-dioxabicyclo[3.2.1]octane-3,4,5-tricarboxylic acid, 6-(7-phenylheptanoate)] | < 100
2 | CC[C@H](C)C[C@H](C)CCC(=O)O[C@@H]1[C@@H](O)[C@@]2(C/C=C(\C)[C@@H](OC(C)=O)[C@H](C)Cc3ccccc3)O[C@H](C(=O)O)[C@@](O)(C(=O)O)[C@]1(C(=O)O)O2 (relative stereo) [Example 11, [1S-[1α[(E),4R*,5S*],3α,4β,5α,6α(4S*,6R*),7β]] 1-(4-Acetyloxy-3,5-dimethyl-6-phenyl-2-hexenyl)-4,6,7-trihydroxy-2,8-dioxabicyclo[3.2.1]octane-3,4,5-tricarboxylic acid, 6-(4,6-dimethyloctanoate)] | < 100
3 | C=C(CCC12OC(C(=O)O)C(O)(C(=O)O)C(C(=O)O)(O1)C(OC(=O)C=CC(C)CC(C)CC)C2OC(=O)OC)C(OC(C)=O)C(C)Cc1ccccc1 (stereo not drawn) [Example 26, [1S-[1α(4R*,5S*),3α,4β,5α,6α(2E,4R*,6R*),7β]] 1-(4-Acetyloxy-5-methyl-3-methylene-6-phenylhexyl)-4,6-dihydroxy-7-[(methoxycarbonyl)oxy]-2,8-dioxabicyclo[3.2.1]octane-3,4,5-tricarboxylic acid, 6-(4,6-dimethyl-2-octenoate)] | < 100
4 | C=C(CC[C@]12O[C@H](C(=O)O)[C@@](O)(C(=O)O)[C@](C(=O)O)(O1)[C@H](OC(=O)OC)[C@H]2O)[C@@H](OC(C)=O)[C@H](C)Cc1ccccc1 (relative stereo) [Example 56, [1S-[1α(4R*,5S*),3α,4β,5α,6α,7β]] 1-(4-Acetyloxy-5-methyl-3-methylene-6-phenylhexyl)-4,7-dihydroxy-6-[(methoxycarbonyl)oxy]-2,8-dioxabicyclo[3.2.1]octane-3,4,5-tricarboxylic acid] | < 100
5 | C=C(CCC12OC(C(=O)O)C(O)(C(=O)O)C(C(=O)O)(O1)C(OC(C)=O)C2O)C(OC(C)=O)C(C)Cc1ccccc1 (stereo not drawn) [Compound 1 in Example 28, [1S-[1α(4R*,5S*),3α,4β,5α,6α,7β]] 1-(4-Acetyloxy-5-methyl-3-methylene-6-phenylhexyl)-4,6,7-trihydroxy-2,8-dioxabicyclo[3.2.1]octane-3,4,5-tricarboxylic acid, 6-acetate] | < 100
6 | CCC(C)CC(C)CCC(=O)OC1C(O)C2(CCCC(=O)C(C)Cc3ccccc3)OC(C(=O)O)C(O)(C(=O)O)C1(C(=O)O)O2 (stereo not drawn) [Example 20, [1S-[1α(5R*S*),3α,4β,5α,6α(4S*,6R*),7β]] 1-(5-Methyl-4-oxo-6-phenylhexyl)-4,6,7-trihydroxy-2,8-dioxabicyclo[3.2.1]octane-3,4,5-tricarboxylic acid, 6-(4,6-dimethyloctanoate)] | < 100
7 | C=C(CC[C@]12O[C@H](C(=O)O)[C@@](O)(C(=O)O)[C@](C(=O)O)(O1)[C@H](OC(=O)c1ccccc1)[C@H]2O)[C@@H](OC(C)=O)[C@H](C)Cc1ccccc1 (relative stereo) [Example 47, [1S-[4α(4R*,5S*),3α,4β,5α,6α,7β]] 1-(4-Acetyloxy-5-methyl-3-methylene-6-phenylhexyl)-4,6,7-trihydroxy-2,8-dioxabicyclo[3.2.1]octane-3,4,5-tricarboxylic acid, 6-benzoate] | < 100
8 | C=C(CC[C@]12O[C@H](C(=O)O)[C@@](O)(C(=O)O)[C@](C(=O)O)(O1)[C@H](OC(=O)/C=C/c1ccccc1)[C@H]2O)[C@@H](OC(C)=O)[C@H](C)Cc1ccccc1 (relative stereo) [Example 49, [1S-[1α(4R*,5S*),3α,4β,5α,6α(2E),7β]] 1-(4-Acetyloxy-5-methyl-3-methylene-6-phenylhexyl)-4,6,7-trihydroxy-2,8-dioxabicyclo[3.2.1]octane-3,4,5-tricarboxylic acid, 6-(3-phenyl-2-propenoate)] | < 100
9 | CCC(C)CC(C)CCC(=O)OC1C(O)C2(CCC(=O)C(O)C(C)Cc3ccccc3)OC(C(=O)O)C(O)(C(=O)O)C1(C(=O)O)O2 (stereo not drawn) [Example 17, [1S-[1α(4R*,5S*),3α,4β,5α,6α(4S*,6R*),7β]] 1-(4-Hydroxy-5-methyl-3-oxo-6-phenylhexyl)-4,6,7-trihydroxy-2,8-dioxobicyclo[3.2.1]octane-3,4,5-tricarboxylic acid, 6-(4,6-dimethyloctanoate)] | < 100
10 | C=C(CC[C@]12O[C@H](C(=O)O)[C@@](O)(C(=O)O)[C@](C(=O)O)(O1)[C@H](OC(=O)CCCC(C)=O)[C@H]2O)[C@@H](OC(C)=O)[C@H](C)Cc1ccccc1 (relative stereo) [Example 51, [1S-[1α(4R*,5S*),3α,4β,5α,6α,7β]] 1-(4-Acetyloxy-5-methyl-3-methylene-6-phenylhexyl)-4,6,7-trihydroxy-2,8-dioxabicyclo[3.2.1]octane-3,4,5-tricarboxylic acid, 6-(5-oxo-hexanoate)] | < 100
11 | C=C(CC[C@]12O[C@H](C(=O)O)[C@@](O)(C(=O)O)[C@](C(=O)O)(O1)[C@H](OC(=O)C1CCCCC1)[C@H]2O)[C@@H](OC(C)=O)[C@H](C)Cc1ccccc1 (relative stereo) [Example 43, [1S-[1α(4R*,5S*),3α,4β,5α,6α,7β]] 1-(4-Acetyloxy-5-methyl-3-methylene-6-phenylhexyl)-4,6,7-trihydroxy-2,8-dioxabicyclo[3.2.1]octane-3,4,5-tricarboxylic acid, 6-(cyclohexanecarboxylate)] | < 100

same assay, conditions: rat liver homogenate; [2-¹⁴C] farnesylpyrophosphate as substrate; 50% inhibition of [¹⁴C] squalene production in a 30 minute assay; read-out: IC₅₀

Row | SMILES | IC50 [nM]
12 | CCC(C)CC(C)C=CC(=O)OC1C(O)C2(CCC(C)C(O)C(C)Cc3ccccc3)OC(C(=O)O)C(O)(C(=O)O)C1(C(=O)O)O2 (single isomer, unassigned) [Example 7, [1S-[1α[3R*(S*),4R*,5S*],3α,4β,5α,6α(2E,4R*,6R*),7β]] and [1S-[1α[3R*(S*),4S*,5S*],3α,4β,5α,6α(2E,4R*,6R*),7β]] 1-(4-Hydroxy-3,5-dimethyl-6-phenylhexyl)-4,6,7-trihydroxy-2,8-dioxabicyclo[3.2.1]octane-3,4,5-tricarboxylic acid, 6-(4,6-dimethyl-2-octenoate), isomer 1 and isomer 2] | < 100
13 | CCC(C)CC(C)/C=C/C(=O)OC1C(O)C2(CCC(C)C(=O)C(C)Cc3ccccc3)OC(C(=O)O)C(O)(C(=O)O)C1(C(=O)O)O2 (single isomer, unassigned) [Example 6, [1S-[1α[3R*(S*),5S*],3α,4β,5α,6α(2E,4R*,6R*),7β]] 1-(3,5-Dimethyl-4-oxo-6-phenylhexyl)-4,6,7-trihydroxy-2,8-dioxabicyclo[3.2.1]octane-3,4,5-tricarboxylic acid, 6-(4,6-dimethyl-2-octenoate), isomer 1 and isomer 2] | < 100

system: clinically relevant pathogens; assay: In vitro antifungal activity, agar plate MIC determination; assay type: cell-based; settings: Candida albicans
Description: The in vitro evaluation of the anti-fungal activity of compounds of the invention can be performed by determining the minimum inhibitory concentration (MIC) which is the concentration of the test compound in a suitable medium at which growth of a particular microorganism fails to occur.
[¹⁴C] Squalene was separated from unreacted substrate on thin layer chromatography plates and determined by liquid scintillation counting. Inhibition of squalene synthase was quantified by incubating rat liver homogenate with various concentrations of the test compound in the presence of [2-¹⁴C] farnesylpyrophosphate. The concentration of compound giving 50% inhibition of [¹⁴C] squalene production in a 30 minute assay was taken as the IC₅₀ value. […] In practice, a series of agar plates, each having the test compound incorporated at a particular concentration, was inoculated with a standard culture of a clinically relevant pathogen, for example Candida albicans, and each plate was then incubated at 37 °C for 24 to 48 hours depending on the pathogen.

Row | SMILES | MIC [µg/mL]
14 | C=C(CC[C@]12O[C@H](C(=O)O)[C@@](O)(C(=O)O)[C@](C(=O)O)(O1)[C@H](OC(=O)CCCCCCc1ccccc1)[C@H]2O)[C@@H](OC(C)=O)[C@H](C)Cc1ccccc1 (relative stereo) [Example 39, [1S-[1α(4R*,5S*)3α,4β,5α,6α,7β]] 1-(4-Acetyloxy-5-methyl-3-methylene-6-phenylhexyl)-4,6,7-trihydroxy-2,8-dioxabicyclo[3.2.1]octane-3,4,5-tricarboxylic acid, 6-(7-phenylheptanoate)] | 0.1 to 31 (≈ 0.138 to 42.7 µM)
15 | CC[C@H](C)C[C@H](C)CCC(=O)O[C@@H]1[C@@H](O)[C@@]2(C/C=C(\C)[C@@H](OC(C)=O)[C@H](C)Cc3ccccc3)O[C@H](C(=O)O)[C@@](O)(C(=O)O)[C@]1(C(=O)O)O2 (relative stereo) [Example 11, [1S-[1α[(E),4R*,5S*],3α,4β,5α,6α(4S*,6R*),7β]] 1-(4-Acetyloxy-3,5-dimethyl-6-phenyl-2-hexenyl)-4,6,7-trihydroxy-2,8-dioxabicyclo[3.2.1]octane-3,4,5-tricarboxylic acid, 6-(4,6-dimethyloctanoate)] | 0.1 to 31 (≈ 0.144 to 44.7 µM)
16 | CC[C@H](C)C[C@H](C)CCC(=O)O[C@@H]1[C@@H](O)[C@@]2(CCC(C)[C@@H](O)[C@H](C)Cc3ccccc3)O[C@H](C(=O)O)[C@@](O)(C(=O)O)[C@]1(C(=O)O)O2 (relative stereo) [Example 13, [1S-[1α(3R*S*,4S*,5S*),3α,4β,5α,6α(4S*,6R*),7β]] 1-(3,5-Dimethyl-4-hydroxy-6-phenylhexyl)-4,6,7-trihydroxy-2,8-dioxabicyclo[3.2.1]octane-3,4,5-tricarboxylic acid, 6-(4,6-dimethyloctanoate)] | 0.1 to 31 (≈ 0.153 to 47.5 µM)
